This assay has as its target T1, mitochondrial branched-chain aminotransferase (mBCAT2) (Mus musculus, UniProt O35855).
T1 sequence (O35855 28-393): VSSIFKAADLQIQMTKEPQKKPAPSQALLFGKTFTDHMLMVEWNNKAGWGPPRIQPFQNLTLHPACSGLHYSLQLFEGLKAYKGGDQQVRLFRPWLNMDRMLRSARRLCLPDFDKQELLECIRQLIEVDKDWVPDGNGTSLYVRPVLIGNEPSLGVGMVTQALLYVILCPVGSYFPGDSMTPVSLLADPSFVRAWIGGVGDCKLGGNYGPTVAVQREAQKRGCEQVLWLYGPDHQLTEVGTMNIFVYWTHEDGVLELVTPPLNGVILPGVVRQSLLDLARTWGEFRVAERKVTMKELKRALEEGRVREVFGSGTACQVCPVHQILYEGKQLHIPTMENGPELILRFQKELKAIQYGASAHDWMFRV
The assay is described as follows: LC-MS transamination assay with Michaelis–Menten kinetics. Format: biochemical.

The values below come from article PMC12215950 (Chemical Science, 2025).

Molecules are shown by their SMILES. pKi: −log10 of the molar value.

Usually pKi stands for the negative decadic logarithm of the Ki, by convention in mol/L. The compound `C=C(CC(=O)O)C(=O)O` [ITA, itaconate] had a pKi of 1.81.
